# Laboratory results taken from patent US20040082558A1, “Administration of estradiol metabolites for inhibition of drug-induced nephrotoxicity” (priority 2002, published 2004).
# Experiments:
# Format in all cases: in vivo, rat
# PAN-treated rats = test: Mortality during 12-week treatment of PAN-treated rats; details: n=13 per group
# Protocol: (§1) After baseline metabolic parameters were measured, animals were randomly assigned to receive subcutaneous saline (3 ml/kg; Control group, n=9) or puromycin aminonucleoside (PAN) (75 mg/kg; drug-induced nephrotoxic animals, n=26). PAN is a drug widely used to produce drug-induced nephrotoxicity in laboratory animals. Grond, J., et al., Contributions to Nephrology 60:83 (1988), the disclosure of which is incorporated herein by reference. Injections of PAN (20 mg/kg) were repeated after 2, 4, 8 and 10 weeks of treatment. Three hours after the initial injections, control animals were implanted with osmotic minipumps (model 2ML4, Alza, Palo Alto, Calif.) containing vehicle (polyethylene glycol 400, 2.5 μl/hour), whereas PAN-treated animals were implanted with osmotic minipumps containing either vehicle (PAN group, n=13) or 2-hydroxyestradiol (10 μg/kg/hour, PAN+2OHE group, n=13). Assignment to the PAN and PAN+2OHE groups was random. Six animals in the PAN group and 2 animals in the PAN+2OHE group died during the treatment, and these animals were not used in the final data analysis.
# PAN-nephropathic rats [1] = test: Plasma testosterone radioimmunoassay; details: 12 weeks of treatment, male rats
# Protocol: An aliquot of mid-point blood sample drawn during the first clearance period was used for testosterone measurements. Plasma testosterone levels were determined by radioimmunoassay using a commercial kit provided by ICN Biomedicals, Inc. (Costa Mesa, Calif.) according to the protocol of the manufacturer.
# PAN-nephropathic rats [2] = test: Metabolic cage measurements (24-hour urine, intake, plasma) in PAN-nephropathic rats
# Protocol: A total of thirty-five, male Sprague Dawley rats (approximately 290 grams) were used. Rats were housed in the University of Pittsburgh Medical Center animal care facility (temperature, 22° C.; light cycle, 12 hours; relative humidity, 55%). Animals were fed Pro Lab RMH 3000 rodent diet (PMI Nutrition Inc., St Louis, Mo.) and were given water ad libitum. Institutional guidelines for animal welfare were followed, and the University of Pittsburgh Institutional Animal Care and Use Committee approved experimental protocols.
# Before initiating treatment, and 3, and 6 and 11 weeks into the treatments, animals were placed in metabolic cages and allowed to acclimatize for two days before conducting the 24-hour measurements of urine volume, food and water intake and urinary sodium, potassium, creatinine, and protein excretion. Tail vein blood samples were also taken for measurement of plasma sodium, potassium, albumin and creatinine. Plasma and urine samples were analyzed for sodium and potassium concentrations using a flame photometer (Model IL-943; Instrumentations Laboratory Inc., Lexington, Ma.) and for creatinine concentrations using a creatinine analyzer (Creatinine Analyzer 2, Beckman Instrument, Inc., Fullerton Calif., USA). Total urine proteins were measured by a spectrophotometric assay using bicinchoninic acid reagent (Pierce; Rockford, Ill.) and a modification of Lowry method. Lowry, O. H., et al., J. Biol. Chem. 193: 265 (1951), the disclosure of which is incorporated herein by reference.
# as §1
# [3] = tested on: proliferating cell nuclear antigen (PCNA); test: Glomerular immunohistochemical staining for PCNA, quantitative image analysis; details: 12 weeks of treatment, kidney sections
# Protocol: (§2) Animals were killed by an overdose of anesthetic and kidneys were removed and weighed. One kidney was fixed in 10% formalin buffer and the second kidney was quick-frozen in liquid nitrogen and stored at −70° C. Kidney tissue samples were sectioned and processed into paraffin blocks for light microscopy. For labeling of collagen IV, renal cortical segments (5 μm) were incubated overnight at 4° C. with rabbit anti-mouse collagen IV antibody (dilution 1/500 ) obtained from Chemicon International Inc. (Temecula, Calif.). A primary monoclonal mouse antibody ( 1/200 dilution; Dako Corporation, Carpenteria, Calif.) was used to label proliferating cell nuclear antigen (PCNA). […] Nonspecific staining was assessed by replacing the primary antibody with phosphate buffered saline. […] Immunochemical staining for collagen IV and PCNA quantitatively was done with a SAMBA 4000 image analyzer (Image Products International, Chantilly, Va.) using specialized computer software (Immuno-Analysis, version 4.1, Microsoft, Richmond, Wash.), a color video camera and a Compaq computer. […] Ten high power fields (×400) were assessed for staining density or positively marked cells for ED-1. […] Staining intensity of positive areas was also assessed (mean optical density) and a mean quick score was then calculated (mean optical density×labeling index).
# ED1 positive cells = test: Immunohistochemical staining for ED1 positive cells (macrophage infiltration) in glomeruli and interstitium; details: 12 weeks of treatment, kidney sections
# Protocol: as §2
# PAN-nephropathic rats [4] = test: Acute measurements of renal hemodynamics and excretory function at 12 weeks; details: 12 weeks of treatment
# Protocol: as §1
# At 12 weeks into treatment, animals were anesthetized with pentobarbital (45 mg/kg i.p.) and instrumented for measurements of renal hemodynamics and excretory function. Two polyethylene (PE)-50 catheters were inserted into left jugular vein for delivery of supplemental anesthetics and saline infusion (50 μl/min), respectively. Another PE-50 catheter was inserted into left carotid artery and connected to a blood-pressure analyzer (Micro-Med., Inc., Louisville, Ky.) for continuous measurement of blood pressure and heart rate. A PE-10 catheter was inserted into the left ureter to facilitate collection of urine, and a flow probe (Model 1RB; Transonic Systems, Inc., Ithaca, N.Y.) was placed on the left renal artery for determination of renal blood flow, which was used to calculate renal vascular resistance. Next, an infusion of ^14C-inulin (0.035 μCi/20 μl saline/min) was initiated and after 60 minutes, two 30-minute clearance periods were conducted. A mid-point blood sample (300 μl) was collected and plasma and urine ^14C-inulin radioactivity was measured. Renal clearance of ^14C-inulin was calculated as an estimate of glomerular filtration rate.
# collagen IV = test: Glomerular immunohistochemical staining for collagen IV, quantitative image analysis; details: 12 weeks of treatment, kidney sections
# Protocol: as §2
compound,measurement,setting,value
"CN(C)c1ncnc2c1ncn2[C@@H]1O[C@H](CO)[C@@H](N)[C@H]1O [PAN, puromycin aminonucleoside]",Animals died during the treatment,PAN-treated rats,Six
same,Plasma testosterone levels,PAN-nephropathic rats [1],0.92 ± 0.27 ng/mL
same,Body Weight,PAN-nephropathic rats [2]; 0 wks of treatment (baseline),293 ± 4 g
same,Creatinine Excretion,PAN-nephropathic rats [2]; 0 wks of treatment (baseline),14.9 ± 2.5 mg/day
same,FE - K+ (fractional excretion of potassium),PAN-nephropathic rats [2]; 0 wks of treatment (baseline),10.5 ± 0.7%
same,FE - Na+ (fractional excretion of sodium),PAN-nephropathic rats [2]; 0 wks of treatment (baseline),0.13 ± 0.01%
same,Fluid Intake,PAN-nephropathic rats [2]; 0 wks of treatment (baseline),5.33 ± 0.37 mL/h/kg
same,Food Intake,PAN-nephropathic rats [2]; 0 wks of treatment (baseline),75 ± 2 g/kg/day
same,Plasma Cholesterol,PAN-nephropathic rats [2]; 0 wks of treatment (baseline),53.6 ± 2.3 mg/dL
same,Potassium Excretion,PAN-nephropathic rats [2]; 0 wks of treatment (baseline),10.9 ± 0.72 mEq/day/kg
same,Sodium Excretion,PAN-nephropathic rats [2]; 0 wks of treatment (baseline),4.48 ± 0.95 mEq/day/kg
same,Urine Volume,PAN-nephropathic rats [2]; 0 wks of treatment (baseline),1.78 ± 0.275 mL/h/kg
same,Body Weight,PAN-nephropathic rats [2]; 3 wks of treatment,313 ± 1 g
same,Creatinine Excretion,PAN-nephropathic rats [2]; 3 wks of treatment,11.1 ± 1.1 mg/day
same,FE - K+ (fractional excretion of potassium),PAN-nephropathic rats [2]; 3 wks of treatment,27.3 ± 3.7 %
same,FE - Na+ (fractional excretion of sodium),PAN-nephropathic rats [2]; 3 wks of treatment,0.37 ± 0.06%
same,Fluid Intake,PAN-nephropathic rats [2]; 3 wks of treatment,7.58 ± 0.667 mL/h/kg
same,Food Intake,PAN-nephropathic rats [2]; 3 wks of treatment,74 ± 4 g/kg/day
same,Plasma Cholesterol,PAN-nephropathic rats [2]; 3 wks of treatment,353 ± 39.4 mg/dL
same,Potassium Excretion,PAN-nephropathic rats [2]; 3 wks of treatment,10.7 ± 0.82 mEq/day/kg
same,Sodium Excretion,PAN-nephropathic rats [2]; 3 wks of treatment,3.80 ± 0.58 mEq/day/kg
same,Urine Volume,PAN-nephropathic rats [2]; 3 wks of treatment,4.192 ± 0.462 mL/h/kg
same,Body Weight,PAN-nephropathic rats [2]; 6 wks of treatment,337 ± 15 g
same,Creatinine Excretion,PAN-nephropathic rats [2]; 6 wks of treatment,8.8 ± 0.9 mg/day
same,FE - K+ (fractional excretion of potassium),PAN-nephropathic rats [2]; 6 wks of treatment,30.1 ± 4.6 %
same,FE - Na+ (fractional excretion of sodium),PAN-nephropathic rats [2]; 6 wks of treatment,0.71 ± 0.13 %
same,Fluid Intake,PAN-nephropathic rats [2]; 6 wks of treatment,6.92 ± 0.542 mL/h/kg
same,Food Intake,PAN-nephropathic rats [2]; 6 wks of treatment,69 ± 3 g/kg/day
same,Plasma Cholesterol,PAN-nephropathic rats [2]; 6 wks of treatment,283.5 ± 39.5 mg/dL
same,Potassium Excretion,PAN-nephropathic rats [2]; 6 wks of treatment,8.39 ± 0.61 mEq/day/kg
same,Sodium Excretion,PAN-nephropathic rats [2]; 6 wks of treatment,3.92 ± 0.38 mEq/day/kg
same,Urine Volume,PAN-nephropathic rats [2]; 6 wks of treatment,3.9 ± 0.512 mL/h/kg
same,Body Weight,PAN-nephropathic rats [2]; 11 wks of treatment,382 ± 27 g
same,Creatinine Excretion,PAN-nephropathic rats [2]; 11 wks of treatment,18.7 ± 3.0 mg/day
same,FE - K+ (fractional excretion of potassium),PAN-nephropathic rats [2]; 11 wks of treatment,47.1 ± 7.7 %
same,FE - Na+ (fractional excretion of sodium),PAN-nephropathic rats [2]; 11 wks of treatment,1.18 ± 0.35 %
same,Fluid Intake,PAN-nephropathic rats [2]; 11 wks of treatment,6.62 ± 0.708 mL/h/kg
same,Food Intake,PAN-nephropathic rats [2]; 11 wks of treatment,53 ± 5 g/kg/day
same,Plasma Cholesterol,PAN-nephropathic rats [2]; 11 wks of treatment,349.6 ± 43.0 mg/dL
same,Potassium Excretion,PAN-nephropathic rats [2]; 11 wks of treatment,9.63 ± 1.60 mEq/day/kg
same,Sodium Excretion,PAN-nephropathic rats [2]; 11 wks of treatment,4.18 ± 0.58 mEq/day/kg
same,Urine Volume,PAN-nephropathic rats [2]; 11 wks of treatment,4.712 ± 0.692 mL/h/kg
same,"Creatinine clearance (in words, FIGS. 1B and 1C)",PAN-nephropathic rats [2]; chronic treatment,reduced creatinine clearance
same,"Plasma creatinine levels (in words, FIG. 1A)",PAN-nephropathic rats [2]; chronic treatment,increased plasma creatinine levels
same,"Urinary protein excretion (UPE; in words, FIG. 2A)",PAN-nephropathic rats [2]; chronic treatment,induced severe proteinuria
same,"Labeling index of glomerular immunoreactive PCNA (in words, FIG. 3)",[3],markedly expanded
same,"Number of ED1 positive cells in glomeruli and interstitium (in words, FIG. 4)",ED1 positive cells,several-fold increase in the number of ED1 positive cells
same,Blood pressure (in words),PAN-nephropathic rats [4],increased blood pressure
same,"GFR, inulin clearance (in words)",PAN-nephropathic rats [4],"decreased renal blood flow, renal plasma flow, hematocrit and glomerular filtration rate"
same,Hematocrit,PAN-nephropathic rats [4],27 ± 2%
same,Left Kidney,PAN-nephropathic rats [4],2.10 ± 0.13 g
same,Glomerular Filtration Rate,PAN-nephropathic rats [4]; 14C-inulin clearance,0.21 ± 0.07 ml/min/g kidney
same,Body Weight,PAN-nephropathic rats [4]; acute experiment,368 ± 15
same,Mean Blood Pressure,PAN-nephropathic rats [4]; anesthetized,153.0 ± 6.1 mm Hg
same,Renal Blood Flow,PAN-nephropathic rats [4]; anesthetized,2.73 ± 0.24 ml/min/g kidney
same,Renal Plasma Flow,PAN-nephropathic rats [4]; anesthetized,2.00 ± 0.19 ml/min/g kidney
same,Renal Vascular Resistance,PAN-nephropathic rats [4]; anesthetized,63.6 ± 7.6 mm Hg/ml/min/g kid
same,Urine Volume,PAN-nephropathic rats [4]; anesthetized,4.43 ± 0.85 μl/min/g kidney
same,"Glomerular collagen IV, labeling index (in words, FIGS. 5 and 6)",collagen IV,significant increase in glomerular collagen IV content
